The target in one assay is D(2) dopamine receptor (Rattus norvegicus, UniProt P61169). In words: Binding affinity towardst dopamine D2 receptor by displacement of [3H]-SPI radioligand in rat striatal membranes. The format is cell membranes, Membrane.
The target of a further assay is D(1A) dopamine receptor (Rattus norvegicus, UniProt P18901). The assay is described as follows: Binding affinity towards dopamine receptor D1 by displacement of [3H]-SCH- radioligand in rat striatal membranes. The format is cell membranes, Membrane.

Structures are written as SMILES.

D(1A) dopamine receptor, sequence (P18901 whole entry): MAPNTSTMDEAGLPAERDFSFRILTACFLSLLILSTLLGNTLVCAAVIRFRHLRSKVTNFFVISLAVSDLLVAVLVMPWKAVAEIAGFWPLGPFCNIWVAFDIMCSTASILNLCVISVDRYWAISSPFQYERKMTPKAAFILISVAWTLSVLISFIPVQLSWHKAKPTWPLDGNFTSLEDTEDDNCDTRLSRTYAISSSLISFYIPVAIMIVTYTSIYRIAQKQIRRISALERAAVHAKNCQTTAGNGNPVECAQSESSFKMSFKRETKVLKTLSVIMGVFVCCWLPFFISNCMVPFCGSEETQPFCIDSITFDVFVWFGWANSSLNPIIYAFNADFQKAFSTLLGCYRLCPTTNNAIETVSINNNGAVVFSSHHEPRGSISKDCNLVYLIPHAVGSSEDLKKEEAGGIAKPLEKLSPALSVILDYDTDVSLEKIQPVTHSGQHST
D(2) dopamine receptor, sequence (P61169 whole entry): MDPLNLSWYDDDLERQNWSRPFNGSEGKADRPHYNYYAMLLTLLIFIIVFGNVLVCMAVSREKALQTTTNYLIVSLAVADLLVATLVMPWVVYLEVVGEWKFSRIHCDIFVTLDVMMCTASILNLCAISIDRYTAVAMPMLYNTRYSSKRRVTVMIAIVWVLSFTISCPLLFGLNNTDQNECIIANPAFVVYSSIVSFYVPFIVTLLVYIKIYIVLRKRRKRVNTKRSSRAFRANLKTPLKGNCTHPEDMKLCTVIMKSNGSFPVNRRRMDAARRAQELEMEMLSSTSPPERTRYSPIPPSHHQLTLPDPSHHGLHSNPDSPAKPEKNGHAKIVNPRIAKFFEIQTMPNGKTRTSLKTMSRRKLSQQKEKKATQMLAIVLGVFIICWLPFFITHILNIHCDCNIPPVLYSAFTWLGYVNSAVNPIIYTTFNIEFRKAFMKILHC

For the compound `CN1CCN(C2CC(c3ccc(F)cc3)c3ccc(Cl)cc32)CC1` (stereo not drawn), the IC50 on D(2) dopamine receptor was determined as 12 nM; on D(1A) dopamine receptor, 9.5 nM.

As for `CN1CC=C(c2cn(-c3ccc(F)cc3)c3ccc(Cl)cc23)CC1`, the half-maximal inhibitory concentration (IC50) at D(1A) dopamine receptor is 9.8 nM.

`OCCN1CCN([C@@H]2C[C@@H](c3ccc(F)cc3)c3ccc(C(F)(F)F)cc32)CC1` [TEFLUDAZINE]: the concentration for half-maximal inhibition (IC50) at D(1A) dopamine receptor was found to be 19 nM. Against the preceding compound, the IC50 is about 1.9-fold higher.

As for `CN1CC=C(C2=CC(c3ccc(F)cc3)c3ccc(Cl)cc32)CC1` (stereo not drawn), the IC50 was determined as 5.1 nM at D(2) dopamine receptor and 23 nM on D(1A) dopamine receptor.

On to `CN1CCC(C2=CC(c3ccc(F)cc3)c3ccc(Cl)cc32)CC1` (stereo not drawn), for which the IC50 worked out at 19 nM on D(2) dopamine receptor and 12 nM at D(1A) dopamine receptor.

These data come from ChEMBL document CHEMBL1126831, “A structure-activity study of four dopamine D-1 and D-2 receptor antagonists, representing the phenylindan, -indene, and -indole structural classes of compounds” (J Med Chem, 1993).
